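The compound was tested at five concentrations on cells cultured in 96-well plates, with a 48-hour exposure period. GI50 = concentration required for 50% inhibition of growth. Definition used: TGI = concentration required for complete inhibition of growth.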
What was measured:
Test in all cases: NCI-60 cell line screen, 48 h
[1] = tested on: ACHN renal
[2] = tested on: UACC-257 melanoma
[3] = tested on: CAKI-1 renal
[4] = tested on: OVCAR-8 ovarian
[5] = tested on: NCI-H23 lung
[6] = tested on: MOLT-4 leukemia
[7] = tested on: HS 578T breast
[8] = tested on: K-562 leukemia
[9] = tested on: BT-549 breast
[10] = tested on: EKVX NSCLC

SMILES | GI50 [1] [µM] | TGI [1] [µM] | GI50 [2] [µM] | TGI [2] [µM] | GI50 [3] [µM] | TGI [3] [µM] | GI50 [4] [µM] | TGI [4] [µM] | GI50 [5] [µM] | TGI [5] [µM] | GI50 [6] [µM] | TGI [6] [µM] | GI50 [7] [µM] | TGI [7] [µM] | GI50 [8] [µM] | TGI [8] [µM] | GI50 [9] [µM] | TGI [9] [µM] | TGI [10] [µM] | GI50 [10] [µM]
N/C(=N\N=C\c1ccc(-c2ccccc2)cc1)N[N+](=O)[O-] | > 100 | > 100 | > 100 | > 100 | 4.17 | > 100 | 5.61 | > 100 | 9.2 | > 100 | 5.76 | > 100 | 1.43 | > 61.3 | 0.481 | > 100 | 17.1 | > 100 |  | 
O=C1C=C(Br)c2c(-c3ccccc3)oc3cccc1c23 |  | > 100 |  | > 100 |  | > 100 |  | > 100 |  | > 100 |  | > 67.8 |  | > 100 |  | > 86.8 |  | > 100 | > 100 | 
O=C(N/N=C/c1ccc2c(c1)CCC2)c1ccccc1O |  | 34.8 |  | 95.1 |  | 74.5 |  | 71.9 |  | 82.2 |  | > 100 |  | 71 |  | > 100 |  | 41.7 | 92.2 | 
COc1cccc(C=Nc2cc(C)ccn2)c1O.COc1cccc(C=Nc2cc(C)ccn2)c1O.[Cu] | 22.3 | 43.8 | 19.1 | 43.1 | 20.5 | 46 | 20.4 | 64.4 | 19 | 49.4 | 10.9 | 73.4 | 19 | 67.6 | 18.2 | 68.1 | 16.5 | 42.4 | 71.5 | 25.4
Nc1ncnc2[nH]ncc12 | 0.535 | > 100 | 0.983 | 14.2 | 0.11 | 1.44 | 0.285 | 16.6 | 1.59 | 38.1 | 2.64 | > 100 | 7.32 | > 100 | 0.279 | > 100 | 1.98 | 74.9 | > 79.9 | 2.6
COC(=O)C(Cc1ccccc1)NC(=O)NC(=O)NC(=O)CI (configuration not stated) | 1.85 | 3.62 | 13.2 | 26.5 | 2 | 4.08 | 4.3 | 15.9 | 6.79 | 28.2 | 2 | 5.21 | 34.3 | > 100 | 2.09 | 5.08 | 10 | 21.8 | 25.3 | 11.9
COc1cc2c(cc1OCCCCOc1cc3c(cc1OC)C(=O)N1CCC[C@H]1CN3)N=C[C@@H]1CCCN1C2=O | 2.62 | 29 | 5.64 | > 100 | 0.344 |  | 3.37 | > 33.1 | 2.22 | 5.8 | 0.282 | > 100 | 0.823 | 2.63 | 0.174 | > 37.9 | 0.357 | 5.75 | 76.5 | 5.13

From PubChem BioAssay (NCI)
